From the supplement of paper PMC10307832

Key:
Assay in all cases: relative viability (nuclei count vs DMSO), 5 days (fraction); higher = more cells survive
[1] = test system: HCC-44
In short: (§1)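 Dosing by pin tool came one day after lung cancer cell lines were seeded in 1536-well plates, using either one drug or a fixed anchor-drug dose plus five library-drug doses (not always all listed) in √10 steps. After 5 days, nuclei were counted on 4× images. Relative viability is treated-well nuclei count divided by vehicle-well nuclei count, and values are medians of duplicate plates.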

[2] = test system: LCLC-103H
In short: as §1

[3] = test system: EPLC-272H
In short: as §1

[4] = test system: NCI-H2023
In short: as §1

[5] = test system: NCI-H650
In short: as §1

[6] = test system: NCI-H2405
In short: as §1

[7] = test system: ChaGo-K-1
In short: as §1

[8] = test system: NCI-H23
In short: as §1

[9] = test system: NCI-H1437
In short: as §1

[10] = test system: NCI-H2009
In short: as §1

[11] = test system: EMC-BAC-2
In short: as §1

[12] = test system: NCI-H441
In short: as §1

[13] = test system: NCI-H2347
In short: as §1

[14] = test system: NCI-H520
In short: as §1

[15] = test system: LOU-NH91
In short: as §1

[16] = test system: HOP-62
In short: as §1

[17] = test system: NCI-H2126
In short: as §1

[18] = test system: NCI-H727
In short: as §1

[19] = test system: SW 1573
In short: as §1

[20] = test system: NCI-H2170
In short: as §1

[21] = test system: NCI-H460
In short: as §1

[22] = test system: NCI-H647
In short: as §1

[23] = test system: NCI-H1793
In short: as §1

Compound: O=C(O)CCCCC(CCSCc1ccccc1)SCc1ccccc1 (stereo not given) [CPI-613] + CCNC(=O)c1noc(-c2cc(C(C)C)c(O)cc2O)c1-c1ccc(CN2CCOCC2)cc1 [Luminespib] (partner 0.01 µM)
- relative viability ([1]; first compound 5 µM): 0.964
- relative viability ([1]; first compound 15.81 µM): 0.939
- relative viability ([1]; first compound 50 µM): 1.04
- relative viability ([1]; first compound 158.11 µM): 0.495
- relative viability ([1]; first compound 500 µM): 0.121
- relative viability ([2]; first compound 5 µM): 0.924
- relative viability ([2]; first compound 15.81 µM): 0.825
- relative viability ([2]; first compound 50 µM): 0.846
- relative viability ([2]; first compound 158.11 µM): 0.811
- relative viability ([2]; first compound 500 µM): 0.269
- relative viability ([3]; first compound 5 µM): 0.338
- relative viability ([3]; first compound 15.81 µM): 0.32
- relative viability ([3]; first compound 50 µM): 0.575
- relative viability ([3]; first compound 158.11 µM): 0.0624
- relative viability ([3]; first compound 500 µM): 0.0121
- relative viability ([4]; first compound 5 µM): 0.791
- relative viability ([4]; first compound 15.81 µM): 0.692
- relative viability ([4]; first compound 50 µM): 0.736
- relative viability ([4]; first compound 158.11 µM): 0.052
- relative viability ([4]; first compound 500 µM): 0.0128
- relative viability ([5]; first compound 5 µM): 0.811
- relative viability ([5]; first compound 15.81 µM): 0.732
- relative viability ([5]; first compound 50 µM): 0.852
- relative viability ([5]; first compound 158.11 µM): 0.69
- relative viability ([5]; first compound 500 µM): 0.613
- relative viability ([6]; first compound 5 µM): 0.657
- relative viability ([6]; first compound 15.81 µM): 0.711
- relative viability ([6]; first compound 50 µM): 0.622
- relative viability ([6]; first compound 158.11 µM): 0.736
- relative viability ([6]; first compound 500 µM): 0.727
- relative viability ([7]; first compound 5 µM): 0.533
- relative viability ([7]; first compound 15.81 µM): 0.61
- relative viability ([7]; first compound 50 µM): 0.596
- relative viability ([7]; first compound 158.11 µM): 0.204
- relative viability ([7]; first compound 500 µM): 0.11
- relative viability ([8]; first compound 5 µM): 0.224
- relative viability ([8]; first compound 15.81 µM): 0.222
- relative viability ([8]; first compound 50 µM): 0.234
- relative viability ([8]; first compound 158.11 µM): 0.129
- relative viability ([8]; first compound 500 µM): 0.0632
- relative viability ([9]; first compound 5 µM): 1.09
- relative viability ([9]; first compound 15.81 µM): 1.04
- relative viability ([9]; first compound 50 µM): 1.07
- relative viability ([9]; first compound 158.11 µM): 0.53
- relative viability ([9]; first compound 500 µM): 0.0571
- relative viability ([10]; first compound 5 µM): 1.06
- relative viability ([10]; first compound 15.81 µM): 0.954
- relative viability ([10]; first compound 50 µM): 0.936
- relative viability ([10]; first compound 158.11 µM): 0.179
- relative viability ([10]; first compound 500 µM): 0.012
- relative viability ([11]; first compound 5 µM): 1.15
- relative viability ([11]; first compound 15.81 µM): 1.08
- relative viability ([11]; first compound 50 µM): 1.16
- relative viability ([11]; first compound 158.11 µM): 0.396
- relative viability ([11]; first compound 500 µM): 0.0424
- relative viability ([12]; first compound 5 µM): 0.36
- relative viability ([12]; first compound 15.81 µM): 0.38
- relative viability ([12]; first compound 50 µM): 0.289
- relative viability ([12]; first compound 158.11 µM): 0.124
- relative viability ([12]; first compound 500 µM): 0.0495
- relative viability ([13]; first compound 5 µM): 0.279
- relative viability ([13]; first compound 15.81 µM): 0.344
- relative viability ([13]; first compound 50 µM): 0.746
- relative viability ([13]; first compound 158.11 µM): 0.548
- relative viability ([13]; first compound 500 µM): 0.833
- relative viability ([14]; first compound 5 µM): 0.196
- relative viability ([14]; first compound 15.81 µM): 0.204
- relative viability ([14]; first compound 50 µM): 0.214
- relative viability ([14]; first compound 158.11 µM): 0.197
- relative viability ([14]; first compound 500 µM): 0.181
- relative viability ([15]; first compound 5 µM): 0.344
- relative viability ([15]; first compound 15.81 µM): 0.325
- relative viability ([15]; first compound 50 µM): 0.323
- relative viability ([15]; first compound 158.11 µM): 0.309
- relative viability ([15]; first compound 500 µM): 0.34
- relative viability ([16]; first compound 5 µM): 0.882
- relative viability ([16]; first compound 15.81 µM): 0.944
- relative viability ([16]; first compound 50 µM): 0.894
- relative viability ([16]; first compound 158.11 µM): 0.627
- relative viability ([16]; first compound 500 µM): 0.607
- relative viability ([17]; first compound 5 µM): 0.906
- relative viability ([17]; first compound 15.81 µM): 0.83
- relative viability ([17]; first compound 50 µM): 0.85
- relative viability ([17]; first compound 158.11 µM): 0.223
- relative viability ([17]; first compound 500 µM): 0.053
- relative viability ([18]; first compound 5 µM): 0.274
- relative viability ([18]; first compound 15.81 µM): 0.641
- relative viability ([18]; first compound 50 µM): 0.286
- relative viability ([18]; first compound 158.11 µM): 0.188
- relative viability ([18]; first compound 500 µM): 0.115
- relative viability ([19]; first compound 5 µM): 0.254
- relative viability ([19]; first compound 15.81 µM): 0.295
- relative viability ([19]; first compound 50 µM): 0.138
- relative viability ([19]; first compound 158.11 µM): 0.0967
- relative viability ([19]; first compound 500 µM): 0.0725
- relative viability ([20]; first compound 5 µM): 0.754
- relative viability ([20]; first compound 15.81 µM): 0.573
- relative viability ([20]; first compound 50 µM): 0.524
- relative viability ([20]; first compound 158.11 µM): 0.196
- relative viability ([20]; first compound 500 µM): 0.0909
- relative viability ([21]; first compound 5 µM): 0.0325
- relative viability ([21]; first compound 15.81 µM): 0.0279
- relative viability ([21]; first compound 50 µM): 0.0372
- relative viability ([21]; first compound 158.11 µM): 0.0145
- relative viability ([21]; first compound 500 µM): 0.0162
- relative viability ([22]; first compound 5 µM): 0.133
- relative viability ([22]; first compound 15.81 µM): 0.152
- relative viability ([22]; first compound 50 µM): 0.113
- relative viability ([22]; first compound 158.11 µM): 0.144
- relative viability ([22]; first compound 500 µM): 0.119
- relative viability ([23]; first compound 5 µM): 0.252
- relative viability ([23]; first compound 15.81 µM): 0.372
- relative viability ([23]; first compound 50 µM): 0.175
- relative viability ([23]; first compound 158.11 µM): 0.131
- relative viability ([23]; first compound 500 µM): 0.0028
